Common to all, as to assay type: in vivo
Data set [1] concerns Yellow Fever Mosquito (Aedes aegypti, AEDSAE). Nature of the data set: Bioassay on Yellow Fever Mosquito (YFM) larvae, 96-well plate. The conditions noted are these: about 1 day-old larvae, room temperature, 3 days, scored on mortality. Here is the method:
Certain molecules disclosed in this document were tested against YFM using procedures described in the following paragraph. In the reporting of the results, the “GPA & YFM Rating Table” was used (See Table Section).
Master plates containing 400 μg of a molecule dissolved in 100 μL of dimethyl sulfoxide (DMSO) (equivalent to a 4000 ppm solution) are used. A master plate of assembled molecules contains 15 μL per well. To this plate, 135 μL of a 90:10 water/acetone mixture is added to each well. A robot is programmed to dispense 15 μL aspirations from the master plate into an empty 96-well shallow plate (“daughter” plate). There are 6 reps (“daughter” plates) created per master. The created “daughter” plates are then immediately infested with YFM larvae.
The day before plates are to be treated, mosquito eggs are placed in Millipore water containing liver powder to begin hatching (4 g. into 400 mL). After the “daughter” plates are created using the robot, they are infested with 220 μL of the liver powder/larval mosquito mixture (about 1 day-old larvae). After plates are infested with mosquito larvae, a non-evaporative lid is used to cover the plate to reduce drying. Plates are held at room temperature for 3 days prior to grading. After 3 days, each well is observed and scored based on mortality. The results are indicated in the table entitled “Table ABC: Biological Results” (See Table Section).

The test system of data set [2] is Beet Armyworm (Spodoptera exigua, LAPHEG). Nature of the data set: Bioassay on Beet Armyworm (BAW), 128-well diet tray assay. The note with it: 168 h, 50 μg/cm^2 on artificial diet, second instar larvae, 25° C., five to seven days, average of eight wells, read-out: BAW % Control (or Mortality) rating. On the procedure:
(§1) Certain molecules disclosed in this document were tested against BAW and CL using procedures described in the following examples. In the reporting of the results, the “BAW & CL Rating Table” was used (See Table Section).
Bioassays on BAW were conducted using a 128-well diet tray assay. One to five second instar BAW larvae were placed in each well (3 mL) of the diet tray that had been previously filled with approximately 1.5 mL of artificial diet to which 50 μg/cm^2 of the test molecule (dissolved in 50 μL of 90:10 acetone-water mixture) had been applied (to each of eight wells) and then allowed to dry. Trays were covered with a clear self-adhesive cover, vented to allow gas exchange, and held at 25° C., 14:10 light-dark for five to seven days. Percent mortality was recorded for the larvae in each well; activity in the eight wells was then averaged. The results are indicated in the table entitled “Table ABC: Biological Results” (See Table Section).

Data set [3] deals with Cabbage Looper (Trichoplusia ni, TRIPNI). Kind of data set: Bioassay on Cabbage Looper (CL), 128-well diet tray assay. The note with it: 168 h, 50 μg/cm^2 on artificial diet, second instar larvae, 25° C., five to seven days, average of eight wells, read-out: CL % Control (or Mortality) rating. On the procedure: as §1
Bioassays on CL were conducted using a 128-well diet tray assay, one to five second instar CL larvae were placed in each well (3 mL) of the diet tray that had been previously filled with 1 mL of artificial diet to which 50 μg/cm^2 of the test molecule (dissolved in 50 μL of 90:10 acetone-water mixture) had been applied (to each of eight wells) and then allowed to dry. Trays were covered with a clear self-adhesive cover, vented to allow gas exchange, and held at 25° C., 14:10 light-dark for five to seven days. Percent mortality was recorded for the larvae in each well; activity in the eight wells was then averaged. The results are indicated in the table entitled “Table ABC: Biological Results” (See Table Section).

On to `O=C(NCCN1CCNC1=O)c1cc(NC(=O)[C@H]2[C@H](c3cc(Cl)cc(Cl)c3)C2(Cl)Cl)ccc1Cl` (relative stereo) [F79, trans-2-Chloro-5-(2,2-dichloro-3-(3,5-dichlorophenyl)cyclopropane-1-carboxamido)-N-(2-(2-oxoimidazolidin-1-yl)ethyl)benzamide], for which the “YFM % Control (or Mortality) rating” value in data set [1] is reported as “A (80-100)”. Further, the mortality at 50 µg/cm2 in data set [2] and in data set [3] was 50 to 100% in each case.

As for `CCCNC(=O)c1cc(NC(=O)[C@H]2[C@H](c3cc(Cl)c(OC)c(Cl)c3)C2(Cl)Cl)ccc1Cl` (relative stereo) [F84, trans-2-Chloro-5-(2,2-dichloro-3-(3,5-dichloro-4-methoxyphenyl)cyclopropane-1-carboxamido)-N-propylbenzamide], the “YFM % Control (or Mortality) rating” value in data set [1] is given as “D (No activity noticed in this bioassay)”. Further, the mortality at 50 µg/cm2 in data set [2] and in data set [3] was 50 to 100% in each case.

Take `CCNC(=O)c1cc(NC(=O)[C@H]2[C@H](c3cc(Cl)c(OC)c(Cl)c3)C2(Cl)Cl)ccc1Cl` (relative stereo) [F85, trans-2-Chloro-5-(2,2-dichloro-3-(3,5-dichloro-4-methoxyphenyl)cyclopropane-1-carboxamido)-N-ethylbenzamide]: the “YFM % Control (or Mortality) rating” value in data set [1] was “B (More than 0-Less than 80)”. The mortality at 50 µg/cm2 in data set [2] and in data set [3] was 50 to 100% throughout.

Consider `COc1c(Cl)cc([C@H]2[C@H](C(=O)Nc3ccc(Cl)c(C(=O)NCCF)c3)C2(Cl)Cl)cc1Cl` (relative stereo) [F86, trans-2-Chloro-5-(2,2-dichloro-3-(3,5-dichloro-4-methoxyphenyl)cyclopropane-1-carboxamido)-N-(2-fluoroethyl)benzamide], for which the “YFM % Control (or Mortality) rating” value in data set [1] is on record as “B (More than 0-Less than 80)”. The mortality at 50 µg/cm2 in data set [2] and in data set [3] was 50 to 100% in each case.

In the case of `COc1c(Cl)cc([C@H]2[C@H](C(=O)Nc3ccc(Cl)c(C(=O)NCC(F)(F)F)c3)C2(Cl)Cl)cc1Cl` (relative stereo) [F87, trans-2-Chloro-5-(2,2-dichloro-3-(3,5-dichloro-4-methoxyphenyl)cyclopropane-1-carboxamido)-N-(2,2,2-trifluoroethyl)benzamide], in data set [1], the “YFM % Control (or Mortality) rating” value is recorded as “B (More than 0-Less than 80)”. The mortality at 50 µg/cm2 in data set [2] and in data set [3] was 50 to 100% in each case.

With `COc1c(Cl)cc([C@H]2[C@H](C(=O)Nc3ccc(Cl)c(C(=O)NCCC(F)(F)F)c3)C2(Cl)Cl)cc1Cl` (relative stereo) [F88, trans-2-Chloro-5-(2,2-dichloro-3-(3,5-dichloro-4-methoxyphenyl)cyclopropane-1-carboxamido)-N-(3,3,3-trifluoropropyl)benzamide], the “YFM % Control (or Mortality) rating” value in data set [1] is listed as “B (More than 0-Less than 80)”. Also, the mortality at 50 µg/cm2 in data set [2] and in data set [3] was 50 to 100% throughout.

Consider `CCNC(=O)c1cc(NC(=O)[C@H]2[C@H](c3cc(Cl)cc(Cl)c3)C2(Cl)Cl)cc(Cl)c1Cl` (relative stereo) [F91, trans-2,3-Dichloro-5-(2,2-dichloro-3-(3,5-dichlorophenyl)cyclopropane-1-carboxamido)-N-ethylbenzamide], for which, in data set [1], the “YFM % Control (or Mortality) rating” value is “A (80-100)”. Further, the mortality at 50 µg/cm2 in data set [2] and in data set [3] was 50 to 100% in each case.

As for `O=C(NCCF)c1cc(NC(=O)[C@H]2[C@H](c3cc(Cl)cc(Cl)c3)C2(Cl)Cl)cc(Cl)c1Cl` (relative stereo) [F92, trans-2,3-Dichloro-5-(2,2-dichloro-3-(3,5-dichlorophenyl)cyclopropane-1-carboxamido)-N-(2-fluoroethyl)benzamide], the “YFM % Control (or Mortality) rating” value in data set [1] is on record as “A (80-100)”. Moreover, the mortality at 50 µg/cm2 in data set [2] and in data set [3] was 50 to 100% each time.

On to `O=C(NCCC(F)(F)F)c1cc(NC(=O)[C@H]2[C@H](c3cc(Cl)cc(Cl)c3)C2(Cl)Cl)cc(Cl)c1Cl` (relative stereo) [F94, trans-2,3-Dichloro-5-(2,2-dichloro-3-(3,5-dichlorophenyl)cyclopropane-1-carboxamido)-N-(3,3,3-trifluoropropyl)benzamide], for which, in data set [1], the “YFM % Control (or Mortality) rating” value was “A (80-100)”. The mortality at 50 µg/cm2 in data set [2] and in data set [3] was 50 to 100% throughout.

In the case of `CCCNC(=O)c1cc(NC(=O)[C@H]2[C@H](c3cc(Cl)cc(Cl)c3)C2(Cl)Cl)cc(Cl)c1Cl` (relative stereo) [F95, trans-2,3-Dichloro-5-(2,2-dichloro-3-(3,5-dichlorophenyl)cyclopropane-1-carboxamido)-N-propylbenzamide], the “YFM % Control (or Mortality) rating” value in data set [1] is “A (80-100)”. Besides, the mortality at 50 µg/cm2 in data set [2] and in data set [3] was 50 to 100% throughout.

In the case of `CC(NC(=O)c1cc(NC(=O)[C@H]2[C@H](c3cc(Cl)cc(Cl)c3)C2(Cl)Cl)ccc1Cl)c1ccc(F)cc1` (relative stereo) [F96, 2-chloro-5-(trans-2,2-dichloro-3-(3,5-dichlorophenyl)cyclopropane-1-carboxamido)-N-(1-(4-fluorophenyl)ethyl)benzamide], in data set [1], the “YFM % Control (or Mortality) rating” value is reported as “A (80-100)”. In addition, the mortality at 50 µg/cm2 in data set [2] and in data set [3] was 50 to 100% in each case.

As to `CC(C)(NC(=O)c1cc(NC(=O)[C@H]2[C@H](c3cc(Cl)cc(Cl)c3)C2(Cl)Cl)ccc1Cl)c1ccc(F)cc1` (relative stereo) [F97, 2-Chloro-5-(trans-2,2-dichloro-3-(3,5-dichlorophenyl)cyclopropane-1-carboxamido)-N-(2-(4-fluorophenyl)propan-2-yl)benzamide], the “YFM % Control (or Mortality) rating” value in data set [1] is recorded as “A (80-100)”. The mortality at 50 µg/cm2 in data set [2] and in data set [3] was 50 to 100% each time.

With `CCNC(=O)c1cc(NC(=O)[C@H]2[C@H](c3cc(Cl)cc(Cl)c3)C2(Cl)Cl)c(Cl)cc1Cl` (relative stereo) [F98, trans-2,4-Dichloro-5-(2,2-dichloro-3-(3,5-dichlorophenyl)cyclopropane-1-carboxamido)-N-ethylbenzamide], the “YFM % Control (or Mortality) rating” value in data set [1] is recorded as “A (80-100)”. For the same compound, the mortality at 50 µg/cm2 in data set [2] was 0 to 50%; in data set [3] it was 0%.

For the compound `O=C(NCCF)c1cc(NC(=O)[C@H]2[C@H](c3cc(Cl)cc(Cl)c3)C2(Cl)Cl)c(Cl)cc1Cl` (relative stereo) [F99, trans-2,4-Dichloro-5-(2,2-dichloro-3-(3,5-dichlorophenyl)cyclopropane-1-carboxamido)-N-(2-fluoroethyl)benzamide], the “YFM % Control (or Mortality) rating” value in data set [1] is on record as “A (80-100)”. Further, the mortality at 50 µg/cm2 in data set [2] and in data set [3] was 50 to 100% throughout.

Consider `O=C(NCC(F)(F)F)c1cc(NC(=O)[C@H]2[C@H](c3cc(Cl)cc(Cl)c3)C2(Cl)Cl)c(Cl)cc1Cl` (relative stereo) [F100, trans-2,4-Dichloro-5-(2,2-dichloro-3-(3,5-dichlorophenyl)cyclopropane-1-carboxamido)-N-(2,2,2-trifluoroethyl)benzamide], for which the “YFM % Control (or Mortality) rating” value in data set [1] is “A (80-100)”. The mortality at 50 µg/cm2 in data set [2] was 50 to 100%; in data set [3] it was 0%.

Consider `CCCNC(=O)c1cc(NC(=O)[C@H]2[C@H](c3cc(Cl)cc(Cl)c3)C2(Cl)Cl)c(Cl)cc1Cl` (relative stereo) [F101, trans-2,4-Dichloro-5-(2,2-dichloro-3-(3,5-dichlorophenyl)cyclopropane-1-carboxamido)-N-propylbenzamide], for which the “YFM % Control (or Mortality) rating” value in data set [1] is “D (No activity noticed in this bioassay)”. The mortality at 50 µg/cm2 in data set [2] and in data set [3] was 0% in each case.

In general, mortality refers to the share of the test organisms that died.

For the origin of these results see US9795140B2, “Molecules having pesticidal utility, and intermediates, compositions, and processes, related thereto” (priority 2015, dated 2017).
